Several values for one entry are separate records, joined by “and”; a condition that tells them apart may be missing. Equal entries are not always repeated.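 In this assay, cells in 96-well plates receive the compound at five concentrations for 48 hours. Endpoints are linearly interpolated between the surrounding concentrations. The concentration for 50% growth inhibition is given as GI50. TGI denotes the concentration required for complete inhibition of growth.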
What was measured:
Experiment in all cases: NCI-60 cell line screen, 48 h
[1] = system: NCI/ADR-RES ovarian
[2] = system: HS 578T breast
[3] = system: MCF7 breast
[4] = system: MDA-MB-231 breast
[5] = system: DU-145 prostate

| SMILES | GI50 [1] | TGI [1] | GI50 [2] | TGI [2] | GI50 [3] | TGI [3] | GI50 [4] | TGI [4] | GI50 [5] | TGI [5] |
| --- | --- | --- | --- | --- | --- | --- | --- | --- | --- | --- |
| C=C(CN1CCN(c2ccc(Cl)cc2F)CC1)c1ccc(C(=O)Nc2ccccc2N)cc1 | 1.97 µM | 5.5 µM | 3.38 µM | > 70.6 µM | 3.08 µM | > 100 µM | 0.536 µM | 3.64 µM | 3.14 µM | > 100 µM |
| O=S(=O)(NC1=NCCN1C(=S)SN1CCn2c1nsc2=S)c1ccc(OC(F)(F)F)cc1 | 20.5 µM | > 100 µM | 4.83 µM | 33.1 µM | 4.52 µM | 25.2 µM | 15.1 µM | 36.1 µM | 2.69 µM | 12.1 µM |
| COC1=CC(=O)c2nc(-c3ccncc3)[nH]c2C1=O | > 100 µM | > 100 µM | 60 µM | > 100 µM | > 100 µM | > 100 µM | > 100 µM | > 100 µM | > 100 µM | > 100 µM |
| CC1=C(C(=O)Nc2ccc(Cl)c(Cl)c2)C(c2cccc(Oc3ccccc3)c2)NC(=S)N1 (stereo unspecified) | 10.2 µM | 17.4 µM | 5.03 µM | 13.5 µM |  |  | 8.69 µM | 16.6 µM | 6.88 µM | 13.3 µM |
| CC(C)CCC[C@@H](C)[C@H]1CC[C@H]2[C@@H]3CC=C4C[C@@H](C(C(=O)O)C(=O)O)CC[C@]4(C)[C@H]3CC[C@]12C | 0.22 µM | 6 µM | 0.242 µM | 2.58 µM | 0.386 µM | 5.37 µM | 0.214 µM | 0.838 µM | 0.115 µM | 0.274 µM |
| COc1ccc2c(C3=C(c4cn(C)c5ccccc45)C(=O)NC3=O)cn(C)c2c1 | 0.0928 µM | > 25 µM | 0.113 µM | > 25 µM | 0.0853 µM | > 25 µM | 0.542 µM | > 25 µM | 0.137 µM | > 25 µM |
| C#Cc1ccc(-n2c(/C=C/c3ccc(C(F)(F)F)cc3)nc3ncccc3c2=O)cc1 | 2.5 µM | 7 µM | 3.46 µM | > 100 µM | 2.49 µM | 10.2 µM | 2.05 µM | 5.47 µM | 3.76 µM | 12.2 µM |
| COc1cc(Cc2cnc(/N=C3\C(=O)N(CN4CCN(c5c(F)cc6c(=O)c(C(=O)O)cn(C7CC7)c6c5OC)CC4C)c4ccc(F)cc43)nc2N)cc(OC)c1OC (stereo unspecified) | 11.8 µM | 29.4 µM | 23.6 µM | 82.5 µM | 8.35 µM | 52.8 µM | 11.8 µM | 30.3 µM |  |  |
| O=C(/C=C/C12c3ccccc3C(c3ccccc31)C1C(=O)NC(=O)C12)c1ccncc1 (stereo unspecified) | 2.31 µM | 6.71 µM | 3.04 µM | 19.8 µM | 2.25 µM | 12.6 µM | 3.13 µM | 12.7 µM | 2.8 µM | 11.8 µM |
| c1ccc2cc(-c3cc(-c4cc(-c5ccc6ccccc6c5)on4)no3)ccc2c1 |  | > 100 µM |  | > 100 µM |  | > 100 µM |  | > 100 µM |  | > 100 µM |
| O=C(Nc1ccc(Cl)c(Cl)c1)Nc1ccc(Cl)c(Cl)c1 | 3.03 µM and 2.7 µM | 12.9 µM and 14 µM | 3.29 µM and 2.08 µM | 19.3 µM and 6.88 µM | 2.61 µM and 2.78 µM | 12 µM and 11.6 µM | 1.63 µM and 1.73 µM | 3.79 µM and 3.7 µM | 4.03 µM and 4.34 µM | 14.4 µM and 16.2 µM |

Reference: PubChem BioAssay (NCI)
